In PubChem BioAssay (NCI):
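Five concentrations, 48 hours, 96-well plates. GI50: concentration for 50% inhibition of growth. TGI: concentration producing complete growth inhibition.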

Experiments:
Assay in all cases: NCI tumour cell line growth inhibition, 48 h
MOLT-4 leukemia = tested on: MOLT-4 leukemia
SF-295 CNS = tested on: SF-295 CNS
RPMI-8226 leukemia = tested on: RPMI-8226 leukemia
NCI/ADR-RES ovarian = tested on: NCI/ADR-RES ovarian
MCF7 breast = tested on: MCF7 breast
KM12 colon = tested on: KM12 colon
SK-MEL-28 melanoma = tested on: SK-MEL-28 melanoma
NCI-H226 lung = tested on: NCI-H226 lung
HOP-62 NSCLC = tested on: HOP-62 NSCLC
SNB-75 CNS = tested on: SNB-75 CNS

| Structure (SMILES) | TGI (MOLT-4 leukemia) [µM] | TGI (SF-295 CNS) [µM] | TGI (RPMI-8226 leukemia) [µM] | TGI (NCI/ADR-RES ovarian) [µM] | TGI (MCF7 breast) [µM] | TGI (KM12 colon) [µM] | TGI (SK-MEL-28 melanoma) [µM] | TGI (NCI-H226 lung) [µM] | TGI (HOP-62 NSCLC) [µM] | TGI (SNB-75 CNS) [µM] | GI50 (MOLT-4 leukemia) [µM] | GI50 (SF-295 CNS) [µM] | GI50 (RPMI-8226 leukemia) [µM] | GI50 (NCI/ADR-RES ovarian) [µM] | GI50 (MCF7 breast) [µM] | GI50 (KM12 colon) [µM] | GI50 (NCI-H226 lung) [µM] | GI50 (HOP-62 NSCLC) [µM] | GI50 (SNB-75 CNS) [µM] |
| --- | --- | --- | --- | --- | --- | --- | --- | --- | --- | --- | --- | --- | --- | --- | --- | --- | --- | --- | --- |
| C#CCNC(Cc1cnc[nH]1)C(=O)O (stereo not drawn) | > 100 | > 100 | > 100 | > 100 | > 100 | > 100 | > 100 | > 100 | > 100 | > 100 | – | – | – | – | – | – | – | – | – |
| N#Cc1c(NC(=O)c2ccccc2)sc2c1CCC(=O)C2 | > 100 | 6.83 | 1.32 | 11.8 | 7.83 | 5.22 | – | 12.1 | > 100 | 6.2 | 1.2 | 1.96 | 0.305 | 1.33 | 0.64 | 0.711 | 2.75 | 2.55 | 1.64 |
| Cc1cc2ccccc2n1CC(=O)NCC(C)C | > 100 | > 100 | > 100 | > 100 | > 100 | > 100 | > 100 | > 100 | > 100 | > 100 | – | – | – | – | – | – | – | – | – |
| C=CCC(CNC(=O)OCc1ccccc1)O[Si](C)(C)C(C)(C)C (stereo not drawn) | 70.1 | > 100 | 64.9 | > 100 | 57.7 | > 100 | > 100 | 85.8 | > 100 | > 100 | – | – | – | – | – | – | – | – | – |
| CC(=O)O[C@H]1C#C/C=C\C#CC[C@@H]2C(=O)N(C(=O)OC(C)(C)C)[C@@H]12 | > 53.5 | > 100 | > 75.8 | 74.7 | > 100 | > 86.7 | > 100 | 84.8 | 39.6 | > 72.9 | – | – | – | – | – | – | – | – | – |
| Nc1nc(Cl)cc(N=Nc2ccccc2)n1 | > 100 | > 100 | > 100 | > 100 | > 100 | > 100 | > 100 | > 100 | 60.1 | > 100 | – | – | – | – | – | – | – | – | – |
| CC(CCC(=O)O)[C@H]1CCC2[C@H]3C(CC[C@@]21C)[C@@]1(C)CCC(O)C[C@H]1C[C@@H]3O (stereo partly drawn) | > 100 | – | > 100 | > 100 | > 100 | > 100 | > 100 | > 100 | > 100 | > 100 | – | – | – | – | – | – | – | – | – |
| CC(=O)NC1C(CO)O[C@@H]2OC(C)(C)O[C@H]12 (stereo partly drawn) | > 100 | > 100 | > 100 | > 100 | > 100 | > 100 | > 100 | – | > 100 | > 100 | – | – | – | – | – | – | – | – | – |
| Cc1ccc(S(=O)(=O)n2cncc2CO)cc1 | > 100 | > 100 | > 100 | > 100 | > 100 | > 100 | > 100 | > 100 | > 100 | > 100 | – | – | – | – | – | – | – | – | – |
| CN(CCc1ccc(Cl)c(Cl)c1)[C@H]1CCCC[C@H]1N1CCCC1 | > 100 | > 100 | > 100 | > 100 | > 100 | > 100 | > 100 | > 100 | > 100 | – | – | – | – | – | – | – | – | – | – |
| c1ccc(CCN2CCCCCC2)nc1 | > 100 | > 100 | > 100 | > 100 | > 100 | > 100 | > 100 | > 100 | > 100 | – | – | – | – | – | – | – | – | – | – |
| CNC(=O)CCC(NC(C)=O)C(=O)NC(Cc1ccc(NC(=O)CCCCC(C)=O)cc1)C(=O)NC(CCC(=O)NC)C(=O)NC (stereo not drawn) | > 100 | > 100 | > 100 | > 100 | > 100 | > 100 | > 100 | > 100 | > 100 | – | – | – | – | – | – | – | – | – | – |
| CN(C)CCOC(=O)COc1ccc(Cl)cc1 | > 100 | > 100 | – | > 100 | > 100 | > 100 | > 100 | > 100 | > 100 | > 100 | – | – | – | – | – | – | – | – | – |
| CC(NC(=O)/C(=C/c1ccccc1O)NC(=O)c1ccccc1)C(=O)O (stereo not drawn) | > 100 | 38.8 | > 100 | 33.4 | 21.6 | > 100 | > 100 | 45.5 | – | 31.1 | – | – | – | – | – | – | – | – | – |
| CCc1nnc(-n2c(C)nc3cc(Cl)ccc3c2=O)s1 | > 100 | > 100 | – | > 100 | > 100 | > 100 | > 100 | > 100 | > 100 | 92.8 | – | – | – | – | – | – | – | – | – |
| O=C1/C(=C/c2ccccc2)CCc2ccc(Cl)nc21 | 5.93 | 38.2 | 7.88 | > 63.7 | 13.2 | 7.15 | 39.6 | 61.9 | 42 | 47.5 | – | – | – | – | – | – | – | – | – |
| O=C(c1ccccc1)c1c(C(F)(F)F)n([O-])c2ccccc2[n+]1=O | 0.516 | – | 3.34 | > 100 | 5.24 | 3.89 | 4.33 | – | > 100 | 2.74 | – | – | – | – | – | – | – | – | – |
| O=C(N/N=C\c1cccc2ccccc12)Nc1ccc([N+](=O)[O-])cc1 | > 100 | > 100 | > 100 | > 71.4 | > 100 | > 100 | > 100 | > 100 | 59.2 | > 100 | – | – | – | – | – | – | – | – | – |
| C/C(O)=C(\C=N\C(N)=S)C(=O)Nc1ccccc1C | > 100 | > 100 | > 100 | > 100 | > 100 | > 100 | > 100 | > 100 | > 100 | > 100 | – | – | – | – | – | – | – | – | – |
| CC(=O)N(CN1C(=O)CCC1C(=O)O)c1ccccc1 (stereo not drawn) | > 100 | > 100 | > 100 | > 100 | > 100 | > 100 | > 100 | > 100 | > 100 | > 100 | – | – | – | – | – | – | – | – | – |
| Cc1cc2ccccc2c[n+]1CC(O)C[n+]1cc2ccccc2cc1C | > 100 | > 100 | > 100 | > 100 | > 100 | > 100 | > 100 | > 100 | > 100 | > 100 | – | – | – | – | – | – | – | – | – |
